The test system of one series is HDL cholesterol. The series can be described thus: HDL cholesterol in rabbits after injection of phospholipid/peptide complex. The format is in vivo, rabbit. Conditions: 10 mg/kg i.v. as phospholipid complex. The protocol: Small discoidal particles consisting of phospholipid (DPPC) and peptide 146 (SEQ ID NO:146) were prepared following the cholate dialysis method. The phospholipid was dissolved in chloroform and dried under a stream of nitrogen. The peptide was dissolved in buffer (saline) at a concentration of 1-2 mg/ml. The lipid film was redissolved in buffer containing cholate (43° C.) and the peptide solution was added at a 3-1 phospholipid/peptide ratio. The mixture was incubated overnight at 43° C. and then dialyzed at 43° C. (24 hr.), room temperature (24 hr.) and 4° C. (24 hr.), with three changes of buffer (large volumes) at temperature point. The complexes were filter sterilized (0.22μ) for injection and storage at 4° C.
Male New Zealand White rabbits (2.5-3 kg) were injected intravenously with a dose of phospholipid/peptide complex (8 mg/kg bodyweight peptide 146 (SEQ ID NO:146) or 10 mg/kg bodyweight ApoA-I, expressed as peptide or protein content) in a single bolus injection not exceeding 10-15 ml. The animals were slightly sedated before the manipulations. Blood samples (collected on EDTA) were taken before and 5, 15, 30, 60, 240 and 1440 minutes after injection. The hematocrit (Hct) was determined for each sample. Samples were aliquoted and stored at −20° C. before analysis.
Plasma Lipids. The total plasma cholesterol, plasma triglycerides and plasma phospholipids were determined enzymatically using commercially available assays according to the manufacturer's protocols (Boehringer Mannheim, Mannheim, Germany and Biomerieux, 69280, Marcy-l'étoile, France).
Lipoprotein Profiles. The plasma lipoprotein profiles of the fractions obtained after the separation of the plasma into its lipoprotein fractions were determined by spinning in a sucrose density gradient. The fractions were collected and in each individual fraction the phospholipid and cholesterol content was measured enzymatically.

Series [1] can be described thus: Lipid binding by fluorescence spectroscopy. Conditions: Ri 0 (buffer, no lipids), 2 μM. The protocol: The lipid binding properties of the peptides synthesized in Section 6, supra, were tested by fluorescence measurements with labeled peptides, in the present case Tryptophane (Trp or W) or Naphtylalanine (Nal). The fluorescence spectra were recorded on a Fluoromax from Spex (Jobin-Yvon) equipped with a Xenon lamp of 150 W, two monochromators (excitation and emission), a photomultiplier R-928 for detection sensitive in the red up to 850 nm and a thermoelectric magnetic stirred cell holder. Quartz Suprasil cuvettes were used for measurements in the micromolar concentration range. A device of variable slits (from 0.4 to 5 nm) allows modulation of the incident and emitted intensities according to the concentration of peptide used. The reported values are in general the average of between 2 to 4 spectra. The peptide concentration is determined by absorption spectrometry on a Philips PU 8800 using the absorption band of the Trp (ε280 nm=5,550 M^−1 cm^−1 in Tris buffer) or the Nal (ε224 nm =92,770 M^−1 cm^−1 in methanol)
Fluorescence spectra of the peptides were recorded between 290 nm and 450 nm in Tris-HCl buffer (20 mM, pH=7.5), in the presence and absence of lipidic vesicles. The small unilamellar vesicles were formed after rehydration in buffer of the lyophilized phospholipids, dispersion and tip sonification under a N2 stream. The lipids used were either Egg PC/Chol. (20:1) or POPC/Chol. (20:1). The spectra were recorded at a peptide concentration of 2 μM and at a temperature of 37° C. The fluorescence reference standard in the case of Trp was N-acetyltryptophanylamide (NATA).
Lipid binding studies were done through progressive lipidic vesicle addition to the peptide in solution at 2 μM (slits: 5 nm in excitation and 1.5 nm in emission). Dilution effects were taken into account for the fluorescence intensity determination. The lipid concentrations were varied from 10 to 600 μM and the molar ratio of lipid to peptide (Ri) was varied from 5 to 300. The wavelength of excitation was set at 280 nm for both Trp and Nal.
The data were directly recorded and treated by an IBM-PC linked to the spectrofluorimeter through the DM3000F software from Spex. The spectra were corrected by substraction of the solvent contribution and by application of a coefficient given by the constructor taking into account the variation of the photomultiplier response versus the wavelength.
The fluorescence spectra of the peptides were characterized by the wavelength at their maximum of fluorescence emission and by their quantum yield compared to NATA in the case of peptides labeled with a tryptophane. The process of binding to lipids was analyzed by calculating the shift of the wavelength at the maximum of fluorescence emission, (λmax), and the variation of the relative fluorescence intensity of emission versus the lipid concentration. The relative fluorescence intensity is defined as the following ratio: (I-I0)λmax/I0λmax. I and I0 are both measured at the (λmax) corresponding to the initial free state of the peptide, i.e., without lipids. I is the intensity at a defined lipid to peptide ratio and I0 is the same parameter measured in absence of lipids. The absence of these variations is relevant of the absence of interactions of the peptides with the lipids.

The target of series [2] is T1, LCAT (purified from human plasma) (Homo sapiens, UniProt P04180).
T1 construct: from tissue; host or cells: human plasma
T1 sequence (P04180 25-440): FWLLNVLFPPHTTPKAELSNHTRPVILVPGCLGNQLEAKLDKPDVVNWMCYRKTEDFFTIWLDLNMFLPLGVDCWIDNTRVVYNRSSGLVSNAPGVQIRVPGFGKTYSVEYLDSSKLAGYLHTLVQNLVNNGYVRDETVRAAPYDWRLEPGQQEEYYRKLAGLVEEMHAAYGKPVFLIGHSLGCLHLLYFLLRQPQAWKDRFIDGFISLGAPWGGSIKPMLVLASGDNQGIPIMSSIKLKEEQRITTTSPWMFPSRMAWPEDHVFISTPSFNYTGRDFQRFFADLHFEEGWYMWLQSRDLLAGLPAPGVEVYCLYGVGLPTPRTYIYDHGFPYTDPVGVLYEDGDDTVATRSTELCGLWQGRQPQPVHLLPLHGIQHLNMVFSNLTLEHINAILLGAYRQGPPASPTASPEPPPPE
The series is described as follows: LCAT activation assay. Conditions: LCAT activation as compared with native human ApoA-I (= 100%), equivalent masses. The format is biochemical. In short, it runs like this:
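Substrate SUVs of EPC or POPC with 14C-cholesterol (20:1 molar ratio), in 10 mM Tris, 0.14 M NaCl, 1 mM EDTA, pH 7.4, were preincubated with peptide or equal mass of plasma ApoA-I. Reaction started with human plasma LCAT; activation was measured as cholesterol-to-ester conversion relative to ApoA-I (100%).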

Series [3] can be described thus: Circular dichroism helicity determination. Conditions: percent helicity; for He (%) TFE: 5 μM peptide, 90% vol TFE; for He (%) TFE / He (%) SUVs: 37° C.; for He (%) free: unbound peptide 5 μM in 5 mM phosphate buffer, pH 7.4, 37° C.; for He (%) SUVs: peptide-SUV complexes (20:1 EPC:Chol., Ri=30 and Ri=50); for He (%) mics: peptide-micelle complexes, Ri=100, 37° C. The format is physicochemical. In short, it runs like this:
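Far-UV CD (190–260 nm) at 37° C on 5 μM peptide in 5 mM phosphate pH 7.4, free, with EPC:Chol 20:1 SUVs (Ri 30 or 50), lysophosphatidylcholine micelles (Ri 100) or 90% TFE. Spectra converted to molar ellipticity per residue; helicity from 222 nm ellipticity or CONTIN fitting to reference spectra, ±5%.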

No end group written: not given here.

Take “Native ApoA-I: ApoA-I (isolated from human plasma), used as positive control; injected as phospholipid complex in rabbits”: the “Increase in HDL Cholesterol (%)” value is 19.3% with HDL cholesterol (5 min.), 16% in the series with HDL cholesterol (15 min.), 15.8% in the series on HDL cholesterol (60 min.) and −24.1% in the series on HDL cholesterol (240 min.).
Turning to `CC(=O)N[C@@H](Cc1c[nH]c2ccccc12)C(N)=O` [NATA, N-acetyltryptophanylamide, reference compound], in series [1], the “λmax (nm)” value worked out at 350 nm.
With PVLDLFNELLRELLEALQKKLK [compound 40], the “ACTIVITY (%) LCAT” value in series [2] came to 25%. Further, in series [3], the “He (%) TFE” value was 77%, the “He (%) free” value is recorded as 66%, the “He (%) SUVs” value came out at 79% and the “He (%) mics” value is reported as 84%.
The corresponding values for PVLDLFREWLNELLEALKQKLK [compound 37] are 29%, 73%, 65%, 76% and 75%.
